{"source": "ChEMBL document CHEMBL1150880", "about": "“Novel and insecticidal isobutylamides from dinosperma erythrococca” (J Nat Prod, 1998)", "key": {"Musca domestica [1]": {"system": "Musca domestica", "test": "Insecticidal activity against housefly after 3 to 5 days relative to permethrin", "type": "functional"}, "Musca domestica [2]": {"system": "Musca domestica", "test": "Insecticidal activity against housefly after 3 to 5 days", "type": "functional, organism-based"}, "Musca domestica [3]": {"system": "Musca domestica", "test": "Insecticidal activity against housefly after 3 to 5 days relative to cypermethrin", "type": "functional, organism-based"}, "Musca domestica [4]": {"system": "Musca domestica", "test": "Insecticidal activity against housefly at 500 ppm after 3 to 5 days", "type": "functional, organism-based"}, "Heliothis virescens [5]": {"system": "Heliothis virescens", "test": "Insecticidal activity against tobacco budworm after 3 to 5 days", "type": "functional, organism-based"}, "Heliothis virescens [6]": {"system": "Heliothis virescens", "test": "Insecticidal activity against tobacco budworm after 3 to 5 days relative to profenofos", "type": "functional"}, "Heliothis virescens [7]": {"system": "Heliothis virescens", "test": "Insecticidal activity against tobacco budworm at 500 ppm after 3 to 5 days", "type": "functional"}, "Musca domestica [8]": {"system": "Musca domestica", "test": "Insecticidal activity against housefly at 1000 ppm after 3 to 5 days", "type": "functional, organism-based"}, "Musca domestica [9]": {"system": "Musca domestica", "test": "Insecticidal activity against housefly at 2500 ppm after 3 to 5 days", "type": "functional, organism-based"}, "Heliothis virescens [10]": {"system": "Heliothis virescens", "test": "Insecticidal activity against tobacco budworm at 1000 ppm after 3 to 5 days", "type": "functional, organism-based"}, "Heliothis virescens [11]": {"system": "Heliothis virescens", "test": "Insecticidal activity against tobacco budworm at 2500 ppm after 3 to 5 days", "type": "functional, organism-based"}}, "note": "Activity calls are given as the source filed them. No cut-off for these calls is given here.", "data": [{"smiles": "CC(C)CNC(=O)/C=C/C=C/CC1CCc2ccc(Cl)cc2C1", "note": "(stereo not given)", "values": [{"measurement": "Activity", "setting": "Musca domestica [1]", "result": 40, "unit": "%"}]}, {"smiles": "CC(C)CNC(=O)/C=C/C=C/CC1CCc2cc3c(cc2O1)OCO3", "note": "(stereo not given) [ERYTHROCOCCAMIDE A]", "values": [{"measurement": "EC50", "setting": "Musca domestica [2]", "result": 20.2, "unit": "ppm"}, {"measurement": "EC50", "setting": "Musca domestica [3]", "result": 3, "unit": "ppm"}, {"measurement": "Activity", "setting": "Musca domestica [4]", "result": "Active"}, {"measurement": "EC50", "setting": "Heliothis virescens [5]", "result": 74.2, "unit": "ppm"}, {"measurement": "Activity", "setting": "Heliothis virescens [6]", "result": 9.9, "unit": "%"}, {"measurement": "Activity", "setting": "Musca domestica [1]", "result": 9, "unit": "%"}]}, {"smiles": "CC(C)CNC(=O)CC1CCc2cc3c(cc2O1)OCO3", "note": "(stereo not given)", "values": [{"measurement": "Activity", "setting": "Musca domestica [4]", "result": "inactive"}, {"measurement": "Activity", "setting": "Heliothis virescens [7]", "result": "inactive"}]}, {"smiles": "CCCCC/C=C/C=C/C(=O)NCC(C)C", "values": [{"measurement": "Activity", "setting": "Musca domestica [8]", "result": "inactive"}, {"measurement": "Activity", "setting": "Musca domestica [9]", "result": "Active"}, {"measurement": "Activity", "setting": "Heliothis virescens [10]", "result": "inactive"}]}, {"smiles": "CC(C)CNC(=O)/C=C/C=C/Cc1ccccc1", "values": [{"measurement": "EC50", "setting": "Musca domestica [2]", "result": 59.9, "unit": "ppm"}, {"measurement": "Activity", "setting": "Musca domestica [3]", "result": 1.8, "unit": "%"}, {"measurement": "Activity", "setting": "Musca domestica [4]", "result": "Active"}]}, {"smiles": "CC(C)(O)CNC(=O)/C=C/C=C/Cc1ccccc1", "values": [{"measurement": "Activity", "setting": "Heliothis virescens [7]", "result": 80, "unit": "%"}]}, {"smiles": "COc1c2c(cc3ccoc13)CCC(C/C=C/C=C/C(=O)NCC(C)C)O2", "note": "(stereo not given)", "values": [{"measurement": "Activity", "setting": "Musca domestica [4]", "result": "inactive"}, {"measurement": "Activity", "setting": "Heliothis virescens [7]", "result": "inactive"}]}, {"smiles": "CC(C)CNC(=O)/C=C/c1ccc2c(c1)OCO2", "values": [{"measurement": "Activity", "setting": "Musca domestica [9]", "result": "inactive"}, {"measurement": "Activity", "setting": "Heliothis virescens [11]", "result": "inactive"}]}]}
